Read-outs that look alike come from different tables or passages of the source. One block for each compound: values may come before it.
Key:
Test in all cases: SPR equilibrium binding to sparsely-tethered bilayer (stBLM)
truncated PTEN = biological target: T1, truncated PTEN (Homo sapiens, UniProt P60484, DEL286-309); conditions: DOPC:PI(4,5)P2 97.8:2.2 bilayer, pH 7.0, room temperature
T1 construct: crystallization construct: residues 1-6, loop 286-309 and C-terminal tail 354-403 deleted; plasmid from N. R. Leslie; expressed in E. coli, His-tag purified
Text: SPR equilibrium binding to sparsely-tethered bilayer (stBLM) on truncated PTEN

wt PTEN [1] = biological target: T2, wt PTEN (Homo sapiens, UniProt P60484); conditions: for Kd: read-out: Kd (μM) / Component a
T2 construct: full-length, six-histidine tag at the C-terminus, expressed in Escherichia coli BL21 (DE3)
Text: (§1) SPR equilibrium binding to sparsely-tethered bilayer (stBLM) on wt PTEN

wt PTEN [2] = biological target: T3, wt PTEN (Homo sapiens, UniProt P60484, C124S)
T3 construct: full-length, six-histidine tag at the C-terminus, expressed in Escherichia coli BL21 (DE3)
Text: as §1

wt PTEN [3] = biological target: T4, wt PTEN (Homo sapiens, UniProt P60484, H93R); conditions: DOPC:PI(4,5)P2 97.8:2.2 bilayer, pH 7.0, room temperature
T4 construct: full-length, six-histidine tag at the C-terminus, expressed in Escherichia coli BL21 (DE3)
Text: as §1

- Kd (truncated PTEN): 0.77 ± 0.07 µM
- Kd (wt PTEN [1]; DOPC:PI(4,5)P2 97.8:2.2 bilayer (same Kd at 0.7 and 3.7 mol%), 100 mM NaCl, 10 mM HEPES, 1 mM EDTA, pH 7.0, room temperature, Kd as protein concentration at half saturation): 0.4 ± 0.1 µM
- Kd (wt PTEN [2]; DOPC:PI(4,5)P2 97.8:2.2 bilayer, pH 7.0, room temperature): 0.32 ± 0.03 µM
- Kd (wt PTEN [3]): 1.3 ± 0.2 µM
Compound: PI(4,5)P2

- Kd (μM) / Component a (wt PTEN [1]; DOPC:PI(3,4,5)P3 97.9:2.1 bilayer, pH 7.0, room temperature, unreliable (active enzyme likely converts the lipid during the measurement)): 2.4 ± 0.2 µM
- Kd (wt PTEN [2]): 0.12 ± 0.03 µM
Compound: CCCCCCCCCCCCCCCC(=O)OC[C@H](COP(=O)(O)O[C@H]1[C@H](O)[C@@H](OP(=O)(O)O)[C@H](OP(=O)(O)O)[C@@H](OP(=O)(O)O)[C@H]1O)OC(=O)CCCCCCCCCCCCCCC [PI(3,4,5)P3]

- Kd (wt PTEN [1]): 1.9 ± 0.3 µM
Compound: CCCCCCCCCCCCCCCC(=O)OC[C@H](COP(=O)(O)O[C@@H]1[C@H](O)[C@H](O)[C@@H](OP(=O)(O)O)[C@H](OP(=O)(O)O)[C@H]1O)OC(=O)CCCCCCCCCCCCCCC [DPPI(4,5)P2]

— article PMC3323581, “Membrane Association of the PTEN Tumor Suppressor: Molecular Details of the Protein-Membrane Complex from SPR Binding Studies and Neutron Reflection” (PLoS ONE, 2012)
